≈ marks a conversion by molar mass, not a printed value. Like-named read-outs stand apart in the source and are kept apart here.
Key:
[1] = Particle size distribution (PSD) study, laser particle size analyzer; assay type: physicochemical; details: wet method, dispersion medium Isopar G
Excerpt: The result of particle size distribution (PSD) in the present disclosure was acquired by laser particle size analyzer with S3500 model from Microtrac company. The Microtrac S3500 is equipped with a SDC (Sample Delivery Controller) sampling system. This experiment uses a wet method and the dispersion medium is Isopar G. The method and parameters of the laser particle size analyzer are as follows:
The particle size distributions (PSD) of crystalline form A and crystalline form 1 and form 2 in CN101821269B were studied.

[2] = cited from earlier work; for Solubility (in words): from CN101821270A and CN101821269B
[3] = Solubility study in SGF, FeSSIF, FaSSIF and water; assay type: physicochemical
Procedure: Crystalline form A samples were dissolved into 1 mL of simulated gastric fluid (SGF), fed state simulated intestinal fluid (FeSSIF, pH 5.0), fasted state simulated intestinal fluid (FaSSIF, pH 6.5) and water to test the corresponding solubility.

[4] = Physical stability study (storage, XRPD before and after); assay type: physicochemical; details: 1 month
Procedure: Crystalline form A was stored at 25° C./60% RH and 40° C./75% RH for one month.

[5] = Mechanical stability study (grinding, XRPD before and after); assay type: physicochemical; details: ground for 5 minutes
Procedure: Crystalline form A of present disclosure was ground, and analyzed by XRPD before and after being ground for 5 minutes.

SMILES | D10 [1] [μm] | D50 [1] [μm] | D90 [1] [μm] | MV (average based on volume) [1] [μm] | Solubility (in words) ([2]; listed as Crystalline form 1) | Solubility (in words) ([2]; listed as crystalline form 2) | Observation (dissolution) ([3]; 11.2 mg in 1 mL water) | Observation (dissolution) ([3]; 11.3 mg in 1 mL FeSSIF, pH 5.0) | Observation (dissolution) ([3]; 11.5 mg in 1 mL FaSSIF, pH 6.5) | Observation (dissolution) ([3]; 12.4 mg in 1 mL SGF) | Weight of sample dissolved ([3]; in 1 mL FaSSIF, pH 6.5) [mg] | Weight of sample dissolved ([3]; in 1 mL FeSSIF, pH 5.0) [mg] | Weight of sample dissolved ([3]; in 1 mL SGF) [mg] | Weight of sample dissolved ([3]; in 1 mL water) [mg] | Solubility relative to crystalline forms disclosed in the prior art ([3]; in SGF, FaSSIF, FeSSIF and water) | solubility ([3]; thermodynamic from solid, in SGF, FaSSIF, FeSSIF and water) [µg/mL] | Crystalline form change ([4]; 25° C./60% RH) | Crystalline form change ([4]; 40° C./75% RH) | XRPD pattern change before and after grinding [5] | solubility ([2]; after 24 hours in SGF, from CN105130961A) [µg/mL]
C[C@]1(c2nc3cccc(C(N)=O)c3[nH]2)CCCN1 [Form 1, 2-[(2R)-2-methyl-2-pyrrolidinyl]-1H-benzimidazole-7-carboxamide] | 11.54 | 18.89 | 31.97 | 20.89 | better solubility | – | – | – | – | – | – | – | – | – | – | – | – | – | – | –
C[C@]1(c2nc3cccc(C(N)=O)c3[nH]2)CCCN1 [Form 2, 2-[(2R)-2-methyl-2-pyrrolidinyl]-1H-benzimidazole-7-carboxamide] | 8.99 | 59.08 | 231.9 | 94.50 | – | poor solubility | – | – | – | – | – | – | – | – | – | – | – | – | – | –
C[C@]1(c2nc3cccc(C(N)=O)c3[nH]2)CCCN1 [Form A, 2-[(2R)-2-methyl-2-pyrrolidinyl]-1H-benzimidazole-7-carboxamide] | 41.6 | 278.6 | 1118 | 407.2 | – | – | Completely | Completely | Completely | Completely | 11.5 | 11.3 | 12.4 | 11.2 | at least 2 times | > 10000 | No change | No change | no significant change | –
C[C@]1(c2nc3c(C(N)=O)cccc3[nH]2)CCCN1 [crystalline form B, 2-[(2R)-2-methyl-2-pyrrolidinyl]-1H-benzimidazole-7-carboxamide] | – | – | – | – | – | – | – | – | – | – | – | – | – | – | – | – | – | – | – | 6000 (≈ 24.6 mM)

— patent publication US20190092756A1, “CRYSTALLINE FORM A OF 2-[(2R)-2-METHYL-2-PYRROLIDYL]-1H-BENZIMIDAZOLE-7-CARBOXAMIDE DIHYDROCHLORIDE AND PREPARATION METHOD THEREOF” (Crystal Pharmatech Co., Ltd., priority 2016, published 2019)
